Assay results reported in patent publication US20260226493A1, “HERBICIDE RESISTANT PLANTS” (SYNGENTA CROP PROTECTION AG, priority 2023, published 2026).

Key:
Test in all cases: BIO3-BIO1 mutant enzyme activity in the presence of herbicide, percentage inhibition (fluorometric DAPA assay)
Assay type in all cases: biochemical
Conditions in all cases: read-out: percentage inhibition
[1] = biological target: T1, Arabidopsis thaliana BIO3-BIO1 (BioDA) mutants (Arabidopsis thaliana, UniProt B0F481, Q516C)
T1 construct: with the predicted N-terminal mitochondrial transit peptide removed; 6xHis-tag (N); thrombin cleavage site (N); made in house; host or cells: E. coli BL21 (DE3) bioA
T1 sequence (B0F481 23-833 Q516C): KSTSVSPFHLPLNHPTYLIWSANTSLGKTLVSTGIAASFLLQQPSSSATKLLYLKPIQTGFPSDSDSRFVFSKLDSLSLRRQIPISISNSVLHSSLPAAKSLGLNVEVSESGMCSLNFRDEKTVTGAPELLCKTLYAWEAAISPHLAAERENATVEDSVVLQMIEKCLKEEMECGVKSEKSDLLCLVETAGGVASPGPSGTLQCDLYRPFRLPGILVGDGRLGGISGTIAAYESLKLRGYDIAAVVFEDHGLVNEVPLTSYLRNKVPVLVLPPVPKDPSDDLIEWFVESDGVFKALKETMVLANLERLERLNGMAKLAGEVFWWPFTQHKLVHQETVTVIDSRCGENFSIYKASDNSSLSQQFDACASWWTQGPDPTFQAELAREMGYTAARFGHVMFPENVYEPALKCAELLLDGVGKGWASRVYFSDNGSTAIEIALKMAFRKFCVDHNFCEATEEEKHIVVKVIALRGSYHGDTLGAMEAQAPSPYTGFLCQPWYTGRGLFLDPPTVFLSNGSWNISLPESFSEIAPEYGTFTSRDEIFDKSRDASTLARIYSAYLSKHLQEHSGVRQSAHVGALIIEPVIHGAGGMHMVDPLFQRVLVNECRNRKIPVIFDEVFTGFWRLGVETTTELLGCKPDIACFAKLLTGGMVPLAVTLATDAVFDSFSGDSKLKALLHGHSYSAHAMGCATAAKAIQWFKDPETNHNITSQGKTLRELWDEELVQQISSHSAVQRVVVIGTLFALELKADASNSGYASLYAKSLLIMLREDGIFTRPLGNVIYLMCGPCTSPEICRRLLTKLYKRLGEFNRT
Summary of the method: (§1)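 His-tagged Arabidopsis BIO3-BIO1 mutants, expressed in E. coli and purified by IMAC and SEC, were preincubated at 50 nM with herbicide for 10 min at 20 °C in EPPS pH 8.6 with pyridoxal phosphate. Reaction with 100 μM spermidine and 20 μM KAPA ran 75 min at 20 °C; DAPA was derivatised with o-phthalaldehyde and read at ex 410/em 470 nm. […].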

[2] = biological target: T2, Arabidopsis thaliana BIO3-BIO1 (BioDA) mutants (Arabidopsis thaliana, UniProt B0F481, C388M)
T2 construct: with the predicted N-terminal mitochondrial transit peptide removed; 6xHis-tag (N); thrombin cleavage site (N); made in house; host or cells: E. coli BL21 (DE3) bioA
T2 sequence (B0F481 23-833 C388M): as the sequence (B0F481 23-833 Q516C) above, with C366M, C494Q counted along it
Summary of the method: as §1

[3] = biological target: T3, Arabidopsis thaliana BIO3-BIO1 (BioDA) mutants (Arabidopsis thaliana, UniProt B0F481, F348N)
T3 construct: with the predicted N-terminal mitochondrial transit peptide removed; 6xHis-tag (N); thrombin cleavage site (N); made in house; host or cells: E. coli BL21 (DE3) bioA
T3 sequence (B0F481 23-833 F348N): as the sequence (B0F481 23-833 Q516C) above, with F326N, C494Q counted along it
Summary of the method: as §1

[4] = biological target: T4, Arabidopsis thaliana BIO3-BIO1 (BioDA) mutants (Arabidopsis thaliana, UniProt B0F481, F348V)
T4 construct: with the predicted N-terminal mitochondrial transit peptide removed; 6xHis-tag (N); thrombin cleavage site (N); made in house; host or cells: E. coli BL21 (DE3) bioA
T4 sequence (B0F481 23-833 F348V): as the sequence (B0F481 23-833 Q516C) above, with F326V, C494Q counted along it
Summary of the method: as §1

[5] = biological target: T5, Arabidopsis thaliana BIO3-BIO1 (BioDA) mutants (Arabidopsis thaliana, UniProt B0F481, C388T)
T5 construct: with the predicted N-terminal mitochondrial transit peptide removed; 6xHis-tag (N); thrombin cleavage site (N); made in house; host or cells: E. coli BL21 (DE3) bioA
T5 sequence (B0F481 23-833 C388T): as the sequence (B0F481 23-833 Q516C) above, with C366T, C494Q counted along it
Summary of the method: as §1

[6] = biological target: T6, Arabidopsis thaliana BIO3-BIO1 (BioDA) mutants (Arabidopsis thaliana, UniProt B0F481, F348K)
T6 construct: with the predicted N-terminal mitochondrial transit peptide removed; 6xHis-tag (N); thrombin cleavage site (N); made in house; host or cells: E. coli BL21 (DE3) bioA
T6 sequence (B0F481 23-833 F348K): as the sequence (B0F481 23-833 Q516C) above, with F326K, C494Q counted along it
Summary of the method: as §1

[7] = biological target: T7, Arabidopsis thaliana BIO3-BIO1 (BioDA) mutants (Arabidopsis thaliana, UniProt B0F481, S509N)
T7 construct: with the predicted N-terminal mitochondrial transit peptide removed; 6xHis-tag (N); thrombin cleavage site (N); made in house; host or cells: E. coli BL21 (DE3) bioA
T7 sequence (B0F481 23-833 S509N): as the sequence (B0F481 23-833 Q516C) above, with S487N, C494Q counted along it
Summary of the method: as §1

[8] = biological target: T8, Arabidopsis thaliana BIO3-BIO1 (BioDA) mutants (Arabidopsis thaliana, UniProt B0F481, T393V)
T8 construct: with the predicted N-terminal mitochondrial transit peptide removed; 6xHis-tag (N); thrombin cleavage site (N); made in house; host or cells: E. coli BL21 (DE3) bioA
T8 sequence (B0F481 23-833 T393V): as the sequence (B0F481 23-833 Q516C) above, with T371V, C494Q counted along it
Summary of the method: as §1

[9] = biological target: T9, Arabidopsis thaliana BIO3-BIO1 (BioDA) mutants (Arabidopsis thaliana, UniProt B0F481, T512D)
T9 construct: with the predicted N-terminal mitochondrial transit peptide removed; 6xHis-tag (N); thrombin cleavage site (N); made in house; host or cells: E. coli BL21 (DE3) bioA
T9 sequence (B0F481 23-833 T512D): as the sequence (B0F481 23-833 Q516C) above, with T490D, C494Q counted along it
Summary of the method: as §1

[10] = biological target: T10, Arabidopsis thaliana BIO3-BIO1 (BioDA) mutants (Arabidopsis thaliana, UniProt B0F481, W392C)
T10 construct: with the predicted N-terminal mitochondrial transit peptide removed; 6xHis-tag (N); thrombin cleavage site (N); made in house; host or cells: E. coli BL21 (DE3) bioA
T10 sequence (B0F481 23-833 W392C): as the sequence (B0F481 23-833 Q516C) above, with W370C, C494Q counted along it
Summary of the method: as §1

[11] = biological target: T11, Arabidopsis thaliana BIO3-BIO1 (BioDA) mutants (Arabidopsis thaliana, UniProt B0F481, S509F)
T11 construct: with the predicted N-terminal mitochondrial transit peptide removed; 6xHis-tag (N); thrombin cleavage site (N); made in house; host or cells: E. coli BL21 (DE3) bioA
T11 sequence (B0F481 23-833 S509F): as the sequence (B0F481 23-833 Q516C) above, with S487F, C494Q counted along it
Summary of the method: as §1

[12] = biological target: T12, Arabidopsis thaliana BIO3-BIO1 (BioDA) mutants (Arabidopsis thaliana, UniProt B0F481, S390C)
T12 construct: with the predicted N-terminal mitochondrial transit peptide removed; 6xHis-tag (N); thrombin cleavage site (N); made in house; host or cells: E. coli BL21 (DE3) bioA
T12 sequence (B0F481 23-833 S390C): as the sequence (B0F481 23-833 Q516C) above, with S368C, C494Q counted along it
Summary of the method: as §1

SMILES	inhibition at 0.2 µM [7] [%]	inhibition at 1 µM [7] [%]	inhibition at 5 µM [7] [%]	inhibition at 0.2 µM [8] [%]	inhibition at 1 µM [8] [%]	inhibition at 5 µM [8] [%]	inhibition at 0.2 µM [9] [%]	inhibition at 1 µM [9] [%]	inhibition at 5 µM [9] [%]	inhibition at 0.2 µM [1] [%]	inhibition at 1 µM [1] [%]	inhibition at 5 µM [1] [%]	inhibition at 1 µM [2] [%]	inhibition at 1 µM [3] [%]	inhibition at 1 µM [10] [%]	inhibition at 1 µM [4] [%]	inhibition at 1 µM [5] [%]	inhibition at 1 µM [6] [%]	inhibition at 1 µM [11] [%]	inhibition at 1 µM [12] [%]	further results
CCn1c(Cn2ccc(C(F)(F)F)n2)cc(=O)c(C(=O)O)c1-c1ccc(Cl)c(Cl)c1 [Compound L, 2-(3,4-dichlorophenyl)-1-ethyl-4-oxo-6-[[3-(trifluoromethyl)pyrazol-1-yl]methyl]pyridine-3-carboxylic acid]																					inhibition at 0.01 µM [1]: 44%; inhibition at 0.075 µM [1]: 77%; inhibition at 0.5 µM [1]: 95%; inhibition at 0.01 µM [2]: 10%; inhibition at 0.075 µM [2]: 18%; inhibition at 0.5 µM [2]: 34%; inhibition at 0.01 µM [3]: 0%; inhibition at 0.075 µM [3]: 0%; inhibition at 0.5 µM [3]: 21%; inhibition at 0.01 µM [4]: 10%; inhibition at 0.075 µM [4]: 15%; inhibition at 0.5 µM [4]: 11%; inhibition at 0.01 µM [5]: 19%; inhibition at 0.075 µM [5]: 58%; inhibition at 0.5 µM [5]: 92%; inhibition at 0.01 µM [6]: 0%; inhibition at 0.075 µM [6]: 2%; inhibition at 0.5 µM [6]: 22%
CCn1c(C)c(-c2ccc(F)cc2F)c(=O)c(C(=O)O)c1-c1ccc(Cl)c(Cl)c1 [Compound C, 2-(3,4-dichlorophenyl)-5-(2,4-difluorophenyl)-1-ethyl-6-methyl-4-oxo-pyridine-3-carboxylic acid]	16	50	86	3	31	70	79	95	97	74	95	99	17	2	55	0	78	11	82	55	inhibition at 0.2 µM [2]: 20%; inhibition at 5 µM [2]: 69%; inhibition at 0.2 µM [3]: 0%; inhibition at 5 µM [3]: 17%; inhibition at 0.2 µM [10]: 20%; inhibition at 5 µM [10]: 87%; inhibition at 0.2 µM [4]: 0%; inhibition at 5 µM [4]: 1%; inhibition at 0.2 µM [5]: 49%; inhibition at 5 µM [5]: 95%; inhibition at 0.2 µM [6]: 0%; inhibition at 5 µM [6]: 15%; inhibition at 0.2 µM [11]: 24%; inhibition at 5 µM [11]: 98%; inhibition at 0.2 µM [12]: 27%; inhibition at 5 µM [12]: 83%
CCOC(=O)c1nn(-c2ccc3c(c2)OC(F)(F)C(F)(F)O3)c2cccc(C(C)=O)c2c1=O [Compound A, ethyl 5-acetyl-4-oxo-1-(2,2,3,3-tetrafluoro-1,4-benzodioxin-6-yl)cinnoline-3-carboxylate]		43			10			33			83		31	2	42	4	31	11	6	21	
CCn1c(-c2ccc(Cl)c(Cl)c2)c(C(=O)O)c(=O)c2cc(F)ccc21 [Compound M, 2-(3,4-dichlorophenyl)-1-ethyl-6-fluoro-4-oxo-quinoline-3-carboxylic acid]	6	39	78	0	19	46	59	86	96	64	88	97	24	1	17	0	78	1	58	44	inhibition at 0.2 µM [2]: 16%; inhibition at 5 µM [2]: 41%; inhibition at 0.2 µM [3]: 0%; inhibition at 5 µM [3]: 15%; inhibition at 0.2 µM [10]: 0%; inhibition at 5 µM [10]: 27%; inhibition at 0.2 µM [4]: 0%; inhibition at 5 µM [4]: 0%; inhibition at 0.2 µM [5]: 48%; inhibition at 5 µM [5]: 95%; inhibition at 0.2 µM [6]: 0%; inhibition at 5 µM [6]: 24%; inhibition at 0.2 µM [11]: 19%; inhibition at 5 µM [11]: 89%; inhibition at 0.2 µM [12]: 16%; inhibition at 5 µM [12]: 74%
